Results reported in US20120165384A1, “INHIBITION OF HISTONE ACETYLTRANSFERASES BY CTK7A AND METHODS THEREOF” (JAWAHARLAL NEHRU CENTRE FOR ADVANCED SCIENTIFIC RESEARCH, priority 2009, published 2012).

Assays:
PCAF = biological target: T1, PCAF (Homo sapiens, UniProt Q92831); experiment: HAT assay with recombinant PCAF; type: biochemical
T1 construct: Recombinant baculovirus expressing full-length FLAG-tagged CARM1,CBP and PCAF; FLAG; made in house; host or cells: baculovirus-infected Sf21 cells
Method: (§1) Recombinant baculovirus expressing full-length FLAG-tagged CARM1,CBP and PCAF were purified by immunoaffinity chromatography using M2-agarose beads followed by elution with FLAG peptide. Baculovirus-expressed full-length hexahistidine-tagged p300, and G9a were purified using Ni-NTA affinity chromatography as described previously^30.
HAT gel fluorography/autoradiography assays were performed as previously reported^30. Kinetic analysis of p300 HAT inhibition was performed as reported earlier^31 in the presence of (0, 30 and 50 μM) CTK7A. The obtained values were plotted as a lineweaver burk plot using Graphpad Prism software. For p300 Autoacetylation assay, reactions of p300 full length (80 ng) were carried out in HAT assay buffer at 30° C. for 10 minutes with or without the protein (NPM1) followed by addition of 1 μl of 4.7 Ci/mmol [^3H] acetyl CoA (NEN-PerkinElmer) and were further incubated for another 10 min in a 30 μl reaction. GAPDH was used as positive control. The radio-labeled acetylated p300 were processed by fluorography followed by autoradiography.

G9a = biological target: T2, G9a (Homo sapiens, UniProt Q96KQ7); experiment: Histone methyltransferase (HMTase) assay, G9a; type: biochemical; details: even at 100 μM
T2 construct: hexahistidine; made in house; host or cells: baculovirus-infected Sf21 cells
T2 sequence (Q96KQ7 1-1210): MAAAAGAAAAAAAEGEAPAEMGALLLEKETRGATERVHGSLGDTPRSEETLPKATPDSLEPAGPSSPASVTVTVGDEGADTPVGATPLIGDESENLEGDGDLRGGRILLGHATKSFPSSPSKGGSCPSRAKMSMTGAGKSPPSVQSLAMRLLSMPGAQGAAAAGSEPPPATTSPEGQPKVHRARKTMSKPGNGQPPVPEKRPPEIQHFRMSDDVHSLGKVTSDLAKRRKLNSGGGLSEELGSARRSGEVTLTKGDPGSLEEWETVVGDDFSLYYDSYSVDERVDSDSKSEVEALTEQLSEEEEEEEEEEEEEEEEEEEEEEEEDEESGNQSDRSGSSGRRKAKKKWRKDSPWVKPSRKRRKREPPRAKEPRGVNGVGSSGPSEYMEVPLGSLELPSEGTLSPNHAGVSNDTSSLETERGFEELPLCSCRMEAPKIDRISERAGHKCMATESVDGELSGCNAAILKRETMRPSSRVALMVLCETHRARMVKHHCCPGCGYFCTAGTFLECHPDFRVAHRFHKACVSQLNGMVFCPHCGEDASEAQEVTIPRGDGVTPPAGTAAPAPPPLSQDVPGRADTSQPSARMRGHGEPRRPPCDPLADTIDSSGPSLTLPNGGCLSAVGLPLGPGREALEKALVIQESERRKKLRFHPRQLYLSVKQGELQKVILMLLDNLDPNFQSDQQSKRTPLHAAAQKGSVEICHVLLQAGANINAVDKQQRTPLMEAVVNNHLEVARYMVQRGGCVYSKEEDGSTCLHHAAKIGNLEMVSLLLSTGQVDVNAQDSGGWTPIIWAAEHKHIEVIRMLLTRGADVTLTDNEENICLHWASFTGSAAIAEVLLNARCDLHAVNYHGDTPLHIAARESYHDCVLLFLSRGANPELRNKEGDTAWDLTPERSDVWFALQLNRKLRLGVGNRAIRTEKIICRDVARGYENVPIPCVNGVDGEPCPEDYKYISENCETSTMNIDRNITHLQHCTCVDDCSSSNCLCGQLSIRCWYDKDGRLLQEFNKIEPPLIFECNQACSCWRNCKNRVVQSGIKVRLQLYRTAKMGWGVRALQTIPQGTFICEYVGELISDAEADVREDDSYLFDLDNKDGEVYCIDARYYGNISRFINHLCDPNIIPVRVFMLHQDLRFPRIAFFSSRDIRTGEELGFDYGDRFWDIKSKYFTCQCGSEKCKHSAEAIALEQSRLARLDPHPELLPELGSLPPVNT
Method: as §1
(§2) The deacetylation assay was performed as per standard protocol^31. For SirT2 deacetylase assay, 50 ng of bacterially expressed, recombinant enzyme was added in the presence or absence of cofactor NAD^+. HMTase was performed as reported earlier^31.

CARM1 = biological target: T3, CARM1 (Homo sapiens, UniProt Q86X55); experiment: Histone methyltransferase (HMTase) assay, CARM1; type: biochemical; details: even at 100 μM
T3 construct: Recombinant baculovirus expressing full-length FLAG-tagged CARM1,CBP and PCAF; FLAG; made in house; host or cells: baculovirus-infected Sf21 cells
T3 sequence (Q86X55 1-608): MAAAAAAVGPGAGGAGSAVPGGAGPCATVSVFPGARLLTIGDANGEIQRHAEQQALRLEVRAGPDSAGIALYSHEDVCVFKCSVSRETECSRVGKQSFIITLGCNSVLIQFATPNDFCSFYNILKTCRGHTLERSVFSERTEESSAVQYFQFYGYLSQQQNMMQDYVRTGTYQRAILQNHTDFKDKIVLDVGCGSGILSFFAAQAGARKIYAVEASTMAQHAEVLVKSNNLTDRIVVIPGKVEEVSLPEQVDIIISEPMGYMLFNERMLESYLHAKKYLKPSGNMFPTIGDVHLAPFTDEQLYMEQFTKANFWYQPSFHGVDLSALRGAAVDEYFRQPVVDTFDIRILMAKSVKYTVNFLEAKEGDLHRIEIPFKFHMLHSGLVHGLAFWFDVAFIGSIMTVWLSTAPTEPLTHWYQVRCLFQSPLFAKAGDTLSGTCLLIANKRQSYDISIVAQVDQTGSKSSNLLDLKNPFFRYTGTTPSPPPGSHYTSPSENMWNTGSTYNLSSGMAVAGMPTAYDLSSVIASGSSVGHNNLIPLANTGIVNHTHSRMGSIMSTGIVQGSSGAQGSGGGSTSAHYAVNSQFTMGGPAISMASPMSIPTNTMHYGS
Method: as §1, §2

Solubility test in water = type: physicochemical
Method: To a solution of curcumin in methanol (10 mg, 0.027 Mmol) […]. After incubation for 24 h, the solvent was evaporated in vacuum. The residue […] was purified with repeated recrystallization and filtration method using TLC (CHCl3/MeOH=4:1; Rf=0.5). This gave CTK7 as a dark orange powder (7.18 mg, 55%) which was analyzed by H^1 NMR, Melting point test, Solubility test and ESI-MS.
To a solution of CTK7 in methanol (50 mg, 0.1031 mmol), (10 ml) of Sodium ethoxide was added ([…], 0.1175 mmol) and the reaction mixture was stirred at room temperature for 90 minutes. The solvent was evaporated in vacuum and the residue was washed with hexane, diethyl ether and ethyl acetate. Product was confirmed through H^1 NMR, Solubility test, melting point.

T1 sequence (Q92831 whole entry, species assumed): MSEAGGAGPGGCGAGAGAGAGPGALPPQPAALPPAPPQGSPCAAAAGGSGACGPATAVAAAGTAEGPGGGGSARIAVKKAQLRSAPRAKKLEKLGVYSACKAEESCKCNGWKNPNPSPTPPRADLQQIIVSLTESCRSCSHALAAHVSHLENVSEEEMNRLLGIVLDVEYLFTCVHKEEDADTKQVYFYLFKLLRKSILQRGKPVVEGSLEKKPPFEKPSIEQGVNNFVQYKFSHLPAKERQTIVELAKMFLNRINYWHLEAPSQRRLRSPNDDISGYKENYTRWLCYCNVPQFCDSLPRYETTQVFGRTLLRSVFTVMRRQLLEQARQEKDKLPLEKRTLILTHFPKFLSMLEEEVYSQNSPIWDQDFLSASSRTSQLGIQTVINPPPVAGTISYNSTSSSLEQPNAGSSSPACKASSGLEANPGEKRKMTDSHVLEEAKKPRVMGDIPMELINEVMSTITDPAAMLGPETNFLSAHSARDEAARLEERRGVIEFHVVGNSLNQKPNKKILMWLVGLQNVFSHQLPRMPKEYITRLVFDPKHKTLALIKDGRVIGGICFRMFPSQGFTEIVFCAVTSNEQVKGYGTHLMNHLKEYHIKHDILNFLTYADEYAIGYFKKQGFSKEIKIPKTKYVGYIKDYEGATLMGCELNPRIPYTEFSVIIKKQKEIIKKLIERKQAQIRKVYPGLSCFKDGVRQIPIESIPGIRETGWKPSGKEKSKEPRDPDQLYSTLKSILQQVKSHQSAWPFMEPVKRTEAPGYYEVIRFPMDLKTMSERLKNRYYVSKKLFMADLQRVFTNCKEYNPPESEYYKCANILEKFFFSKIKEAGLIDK

COc1cc([O-])cc(C=CC2=NN(c3ccc(C(=O)[O-])cc3)C(C=Cc3cc([O-])cc(OC)c3)C2)c1.[Na+].[Na+].[Na+] (stereo not shown) [CTK7A, Sodium 4-(3,5-bis(3-methoxy-5-oxidostyryl)-4,5dihydro-1H-pyrazole-1-yl)benzoate]
inhibition of PCAF HAT activity (PCAF): inhibit
effect on G9a activity (G9a): unaffected
effect on CARM1 activity (CARM1): unaffected
solubility in water (Solubility test in water): Soluble
